# Source: patent publication US20230060715A1, “USE OF FXR AGONISTS FOR TREATING AN INFECTION BY HEPATITIS D VIRUS” (INSERM (INSTITUT NATIONAL DE LA SANTÉ ET DE LA RECHERCHE …, priority 2020, published 2023)
# Where two headings read alike, the source gives them in different places.
# Key:
# HDV [1] = assay: HDV replication in HDV monoinfected dHepaRG cells (total HDV RNA, RT-qPCR); type: cell-based, Hepatitis D virus; settings: day 4 to 11 post-infection
# Description: FIG. 6. FXRα agonists inhibit HDV replication in monoinfected dHepaRG cells.
# Total RNA was prepared using NucleoSpin RNA Plus (Macherey-Nagel). After DNA digestion with TURBO DNase (Ambion), maximum 1000 ng RNA were reverse-transcribed using High-Capacity RNA-to-cDNA kit (Thermo Fisher Scientific). […] . All assays were performed in triplicate.
# HDV genomic RNA = HDV genomic RNA in HDV monoinfected dHepaRG cells (Northern Blot); settings: day 4 to 11 post-infection
# Description: Differentiated HepaRG cells were infected with HDV at a MOI of 25 GE/cell. From day 4 to day 11 post-infection, cells were treated with 1 or 10 μM of GW4064, 10 μM of 6-ECDCA and 1 μM of tropifexor. At day 11 post HDV infection, cells were collected and HDV genomic RNA was analyzed by Northern Blot.
# To determine if FXRα-mediated inhibition of HDV was independent of HBV, the inventors analyzed the impact of FXRα agonists in HDV mono-infected dHepaRG cells.
# Total RNA was extracted from infected cells using Tri Reagent® (TR118, Molecular Research Center). […] After electrotransfer to charged nylon membranes (Roche), genomic HDV RNA sequences were detected by using a strand-specific RNA probe synthesized using the Dig RNA Labeling kit (Sp6/T7) (Roche) and DIG luminescent detection kit (Roche) accordinng to the manufacturer's instruction. Quantification of signals were done with ImageLab.
# As an internal control for the amount and quality of the extracted RNA, the membrane was stripped and rehybridized by using labeled oligonucleotides specific for human 18S rRNA and 28S rRNA.
# HDV [2] = assay: HDV replication in HBV/HDV coinfected dHepaRG cells (intracellular HDV RNA, RT-qPCR); type: cell-based, Hepatitis D virus; settings: 10 μM, treated day 3 to 13 post-infection
# Description: The HepaRG cell line derived from a human cellular hepato carcinoma can differentiate and regain many phenotypic traits of hepatocytes after 4 weeks of culture under defined conditions^1. HepaRG cells were cultured, differentiated, and infected by HBV and HDV as previously described^2,3.
# Total RNA was prepared using NucleoSpin RNA Plus (Macherey-Nagel). After DNA digestion with TURBO DNase (Ambion), maximum 1000 ng RNA were reverse-transcribed using High-Capacity RNA-to-cDNA kit (Thermo Fisher Scientific). […] All assays were performed in triplicate.
# HBV = assay: Anti-HBV activity in HBV/HDV coinfected dHepaRG cells (intracellular HBV RNAs, secreted HBs and HBe antigens); type: cell-based, Hepatitis B virus; settings: 10 μM, day 13
# Description: FIG. 1. FXRα agonist inhibits HDV replication in HBV-HDV coinfected dHepaRG cells. […] Cells and supernatants were harvested at day 13 for intracellular HBV and HDV RNA and secreted antigens quantification. Results are the mean+/−SD of two experiments performed with three biological replicates.
# The inventors first evaluated the impact of FXRα agonists on HDV replication in in vitro coinfected dHepaRG cells. Cells were simultaneously infected with HBV and HDV. […] At day 13 post-infection, cells and supernatants were collected. The intracellular amounts of HDV and HBV RNAs were quantified as well as secreted HBe and HBs antigens.
# HBV stocks (genotype D, Genbank ID U95551) were prepared using the HepAD38 cell line according to previously described protocols^7.
# HBs and HBe antigens secreted in cells supernatant were quantified, after required dilutions, on Mini Vidas apparatus with Vidas HBs and Vidas HBE/HBET kits (bioMerieux, France) or Autobio kits (AutoBio, China) according to manufacturer's protocol.
# Total RNA was prepared using NucleoSpin RNA Plus (Macherey-Nagel). After DNA digestion with TURBO DNase (Ambion), maximum 1000 ng RNA were reverse-transcribed using High-Capacity RNA-to-cDNA kit (Thermo Fisher Scientific). Quantitative PCR was carried out with primers HDV-F (5′-[…] -3′, SEQ ID NO: 1) and HDV-R (5′-[…] -3′, SEQ ID NO: 2) for quantification of total HDV RNA and HBV-F (5′-[…] -3′, SEQ ID NO: 3) and HBV-R (5′-[…] -3′, SEQ ID NO: 4) for quantification of pregenomic/precore HBV RNA. cDNA was analysed by quantitative PCR (qPCR) using QuantiFast SYBR® Green PCR kit (Qiagen) on LightCycler® 480 instrument (Roche) using a 45 PCR cycles. All assays were performed in triplicate. Relative quantification was determined by normalizing the expression of each gene to S9 housekeeping gene using primers S9-F (5′-[…] -3′, SEQ ID NO: 5) and S9-R (5′-[…] -3′, SEQ ID NO: 6).
# HDV [3] = assay: HDV replication in HBV-infected dHepaRG super-infected with HDV (intracellular HDV RNA, RT-qPCR); type: cell-based, Hepatitis D virus; settings: 7 days treatment, superinfected dHepaRG
# HDV [4] = assay: HDV replication in HBV-infected PHH super-infected with HDV (intracellular HDV RNA, RT-qPCR); type: cell-based, Hepatitis D virus; settings: 7 days treatment, superinfected PHH
# nascent HDV RNAs = assay: Run-On assay of nascent HDV RNAs in HBV/HDV co-infected dHepaRG; type: cell-based, Hepatitis D virus; settings: 10 μM for 4 days, 2 h labelled uridin, coinfected dHepaRG
# Description: FIG. 8. Decrease of the levels of nascent HDV RNAs in HBV/HDV co-infected dHepaRG treated with FXRα agonists. dHepaRG were co-infected with HBV (100 vge/cell) and with HDV (10 vge/cell). […] Cells were incubated with labelled uridin or not (mock-EU) for 2 h, washed and harvested. Total intracellular HDV RNAs as well as EU-labelled HDV RNAs (nascent intracellular HDV RNAs) were isolated and quantified by RT-qPCR analyses. As a control, cells were treated with actinomycin D (10 μg/mL, ActD) 20 min before incubation with labelled uridin in order to block transcription of nascent RNAs. Results are the mean+/−SD one experiment performed with three biological replicates.
# Six days post-infection, cells were treated with 10 μM of GW4064 for 4 days before Run-On experiment.
# HDV-infected HepaRG cells were incubated with labelled uridin or not (mock-EU) for 2 h, washed and harvested. Total intracellular HDV RNAs as well as EU-labelled HDV RNAs (nascent intracellular HDV RNAs) were isolated using the Click-iT™ Nascent RNA Capture Kit (Thermofisher Scientific) according to the manufacturer's instruction. As a control, cells were treated with 10 μg/mL of actinomycin D 20 min before incubation with labelled uridin in order to block transcription of nascent RNAs.
# [5] = in vivo; cited from earlier work
# HDV particles = assay: Specific infectivity of secreted HDV particles on naïve Huh7.5-NTCP cells; settings: 6 days post infection
# Description: (A) Supernatants of infected dHepaRG cells were collected, concentrated by PEG precipitation and the levels of extracellular HDV RNAs were assessed by qRT-PCR analyses. (B-C) Naïve HuH7.5-^NTCP cells were infected with the different concentrated supernatants with (B) 500 vge/cell or (C) as indicated. Six days later, levels of intracellular HDV RNAs were assessed by RT-qPCR analyses. Results of RT-qPCR are the mean+/−SD of three independent experiments each performed with three biological replicates.
# Finally, naïve Huh7.5-^NTCP cells were infected with the same concentrated supernatants but using two different HDV inoculum, 100 and 500 vge/cell, for each condition.
# (§1) For analysis of HDV virion specific infectivity, supernatants from dHepaRG infected with both HBV and HDV were concentrated using 8% PEG 8000. HDV RNA was quantified by RT-qPCR in concentrates and Huh7.5^NTCP cells were infected using same viral genome equivalents (vge) of concentrated virus for each condition of treatment. Six days post infection, total cellular RNA was extracted and HDV RNA was quantified by RT-qPCR.
# [6] = system: HDV antigens (HDAg-L, HDAg-S); settings: superinfected PHH, Western Blot densitometry normalized to B-tubulin
# Description: PHH were infected with HBV at a MOI of 100 GE/cell and 4 days later with HDV at a MOI of 10 GE/cell. […] Cells and supernatants were harvested at day 14 post HBV infection for intracellular HDV RNA quantification and lysed for protein extraction and WB analyses. Graphs represent the densitometry analyses of the respective blots and results are presented as ratios of HDAgs normalized to the levels of B-tubulin.
# (§2) Cells were harvested in RIPA lysis buffer (NaCl 150 mM, Tris HCl pH=8.0 50 mM, SDS 0.1%, NP40 1%, Na Deoxycholate 0.5%) containing protease inhibitors (Protein Cocktail Inhibitors from Sigma-Aldrich, NaF 10 mM, Na Orthovanadate 10 mM). Clarified lysates were subjected to 10% SDS-PAGE and Western Blot transfer onto PVDF or nitrocellulose membranes using the TransTurbo Blot apparatus according to the manufacturer (Biorad). Primary antibodies are the HDVAg antibody (kind gift of Dr Alain Kay) and the beta-tubulin antibody (Abcam). Secondary HRP antibodies were purchased from Sigma-Aldrich. HRP signal detection was determined electronically using Ozyme—Syngene PXi Image system and parameters set strictly below the saturation point.
# [7] = system: HDV antigens (HDAg-L, HDAg-S); settings: superinfected dHepaRG, Western Blot densitometry normalized to B-tubulin
# Description: Differentiated HepaRG cells were infected with HBV at a MOI of 100 GE/cell and 7 days later with HDV at a MOI of 10 GE/cell. […] Cells were harvested at day 17 post HBV infection and lysed for protein extraction and WB analyses. Graphs represent the densitometry analyses of the respective blots and results are presented as ratios of HDAgs normalized to the levels of B-tubulin.
# as §2
# HDV [8] = assay: Secretion of HDV RNA from HBV/HDV coinfected dHepaRG cells (RT-qPCR of concentrated supernatants); settings: 10 μM for 10 days
# Description: (A) Supernatants of infected dHepaRG cells were collected, concentrated by PEG precipitation and the levels of extracellular HDV RNAs were assessed by qRT-PCR analyses. […] Results of RT-qPCR are the mean+/−SD of three independent experiments each performed with three biological replicates.
# as §1
smiles,measurement,setting,value
"O=C(O)c1cc(F)c2nc(N3[C@@H]4CC[C@H]3C[C@@H](OCc3c(-c5ccccc5OC(F)(F)F)noc3C3CC3)C4)sc2c1 [tropifexor, 2-[(1R,3r,5S)-3-({5-cyclopropyl-3-[2-(trifluoromethoxy)phenyl]-1,2-oxazol-4-yl}methoxy)-8-azabicyclo[3.2.1]octan-8-yl]-4-fluoro-1,3-benzothiazole-6-carboxylic acid]",decrease of total HDV RNA,HDV [1]; 1 μM,around 60%
same,amount of genomic HDV RNA,HDV genomic RNA; 1 μM,decreased
"CC(C)c1onc(-c2c(Cl)cccc2Cl)c1COc1ccc(/C=C/c2cccc(C(=O)O)c2)c(Cl)c1 [GW4064, 3-[2-[2-Chloro-4-[[3-(2,6-dichloro-phenyl)-5-(1-methylethyl)-4-isoxazolyl]methoxy]phenyl]ethenyl] benzoic acid]",decrease of total intracellular HDV RNA,HDV [2],60%
same,anti-HBV activity on amount of intracellular HBV RNAs,HBV,verified
same,anti-HBV activity on secreted HBe antigen,HBV,verified
same,anti-HBV activity on secreted HBs antigen,HBV,verified
same,decrease of total intracellular HDV RNA,HDV [3]; 1 μM,very pronounced
same,decrease of total intracellular HDV RNA,HDV [3]; 10 μM,up to 60%
same,decrease of total intracellular HDV RNA,HDV [4]; 1 μM,very pronounced
same,decrease of total intracellular HDV RNA,HDV [4]; 10 μM,≤ 45%
same,decrease of total HDV RNA,HDV [1]; 10 μM,around 60%
same,synthesis of nascent HDV RNA,nascent HDV RNAs,able to inhibit
same,bioavailability,[5],limited
same,amount of genomic HDV RNA,HDV genomic RNA; 10 μM,decreased
same,intracellular HDV RNA levels with inoculum 100 versus 500 vge/cell,HDV particles; Huh7.5-NTCP infected with supernatants of treated dHepaRG,no significant difference
same,decrease of intracellular HDV RNA in cells infected with supernatants of treated dHepaRG,"HDV particles; producer cells treated 10 μM, Huh7.5-NTCP infected with 500 vge/cell",more than 95%
same,reduction of HDAg-L (large HDV antigen) amount,[6],75%
same,reduction of HDAg-S (small HDV antigen) amount,[6],75%
same,reduction of HDAg-L (large HDV antigen) amount,[7],75%
same,reduction of HDAg-S (small HDV antigen) amount,[7],75%
same,decrease of secreted HDV RNA,HDV [8],65%
"CC[C@H]1[C@@H](O)[C@@H]2[C@H](CC[C@]3(C)[C@@H]([C@H](C)CCC(=O)O)CC[C@@H]23)[C@@]2(C)CC[C@@H](O)C[C@@H]12 [6-ECDCA, 6-ethyl-cheno-deoxycholic acide]",decrease of total HDV RNA,HDV [1]; 10 μM,around 60%
same,amount of genomic HDV RNA,HDV genomic RNA; 10 μM,decreased
